This is an account of results in patent US20220298213A1, “IN VIVO ENGINEERED CEREBLON PROTEIN” (Vividion Therapeutics, Inc., priority 2018, published 2022).

Like-named read-outs stand apart in the source and are kept apart here.

For one experiment, the target named is CRBN-287 (Homo sapiens, UniProt Q96SW2). Description: Cysteine probe labeling after IMiD pretreatment, PBMC lysates (Table 4). Format: binding. Also on record: endogenous in cells; host or cells: PBMC lysates. The note with it: read-out: inhibition of cysteine probe labeling, CRBN-287.
Sequence of CRBN-287 (Q96SW2 whole entry): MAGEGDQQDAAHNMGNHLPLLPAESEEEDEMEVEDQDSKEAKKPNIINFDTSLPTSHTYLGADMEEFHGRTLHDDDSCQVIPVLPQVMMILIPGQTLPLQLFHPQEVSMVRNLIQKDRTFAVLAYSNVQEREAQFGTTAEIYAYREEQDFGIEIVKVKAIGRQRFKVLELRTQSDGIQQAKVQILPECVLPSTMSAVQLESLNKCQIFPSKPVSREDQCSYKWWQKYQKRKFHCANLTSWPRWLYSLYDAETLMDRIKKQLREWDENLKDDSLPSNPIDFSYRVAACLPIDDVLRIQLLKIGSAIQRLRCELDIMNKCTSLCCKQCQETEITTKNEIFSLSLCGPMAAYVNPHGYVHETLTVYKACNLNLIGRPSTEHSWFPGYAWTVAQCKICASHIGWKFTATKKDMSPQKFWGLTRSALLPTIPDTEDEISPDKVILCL
For another experiment, the system named is Protein-C. Described as above. Type of experiment: binding.
The test system of a further experiment is Protein-A. Conditions: PBMC lysates.
Another experiment has as its system Protein-B. In words: Cysteine probe labeling after IMiD pretreatment, PBMC lysates (Table 4). Type of experiment: binding.
Another experiment has as its target CRBN-318 (Homo sapiens, UniProt Q96SW2). Described as above. Type of experiment: binding. The note with it: read-out: inhibition of cysteine probe labeling, CRBN-318. Also on record: endogenous in cells; host or cells: PBMC lysates.
The target of a further experiment is T1, CRBN Cys188 (Homo sapiens, UniProt Q96SW2).
T1 construct: endogenous in cells
T1 sequence (Q96SW2 whole entry): as above
Description: Inhibition of iodoacetamide probe labeling of CRBN cysteines, cell lysate (Table 3A). Conditions: 500 micromolar, cell lysate, 1 h. Type of experiment: binding. How it is done: (§1) “X@Y” means that x % inhibition of iodoacetamide probe labeling was observed by treatment of cell lysate with the give compound in each row of the table for 1 h at a concentration of y micromolar. There was consistently high inhibition at C318 in addition to C287, which can be attributed to an allosteric inhibition.

In a further experiment the target is T2, CRBN Cys366 (Homo sapiens, UniProt Q96SW2).
T2 construct: endogenous in cells
T2 sequence (Q96SW2 whole entry): as above
The experiment is described as above. Type of experiment: binding. Conditions: cell lysate, 1 h. How it is done: as §1

A further experiment has as its target T3, CRBN Cys219 (Homo sapiens, UniProt Q96SW2).
T3 construct: endogenous in cells
The description is as above. Format: binding. Conditions: cell lysate, 1 h. Here is the method: as §1

In another experiment the target is T4, CRBN Cys287 (Homo sapiens, UniProt Q96SW2).
T4 construct: endogenous in cells
T4 sequence (Q96SW2 whole entry): as above
The description is as above. Type of experiment: binding. Conditions: cell lysate, 1 h; for inhibition at 500 µM: 500 micromolar. How it is done:
as §1

In a further experiment the target is T5, CRBN Cys205 (Homo sapiens, UniProt Q96SW2).
T5 construct: endogenous in cells
T5 sequence (Q96SW2 whole entry): as above
The experiment is described as above. Type of experiment: binding. The note with it: cell lysate, 1 h. Here is the method: as §1

A further experiment deals with T6, CRBN Cys343 (Homo sapiens, UniProt Q96SW2).
T6 construct: endogenous in cells
T6 sequence (Q96SW2 whole entry): as above
The description is as above. Format: binding. Conditions: cell lysate, 1 h. How it is done:
as §1

The target in a further experiment is T7, CRBN Cys234 (Homo sapiens, UniProt Q96SW2).
T7 construct: endogenous in cells
T7 sequence (Q96SW2 whole entry): as above
The experiment is described as above. Format: binding. The note with it: cell lysate, 1 h. Here is the method:
as §1

The target in another experiment is T8, CRBN Cys318 (Homo sapiens, UniProt Q96SW2).
T8 construct: endogenous in cells
T8 sequence (Q96SW2 whole entry): as above
Described as above. Format: binding. Conditions: cell lysate, 1 h. How it is done: as §1

[1] abbreviates: read-out: % inhibition of iodoacetamide probe labeling, Cys287.

T3 sequence (Q96SW2 whole entry): as above
Sequence of CRBN-318 (Q96SW2 whole entry): as above

A word on the inhibition: it is the drop in the measured response relative to a control, in per cent. Turning to `O=C1CCC(N2Cc3c(OCc4ccc(CN5CCOCC5)cc4)cccc3C2=O)C(=O)N1` (stereo not shown) [CC-220], the inhibition at 2 µM is 75% at CRBN-287 and 70% on CRBN-318. Further, the inhibition at 20 µM on CRBN-287 was determined as 77%; on CRBN-318, 70%. Further, the results for the inhibition at 50 µM at CRBN-287 and at CRBN-318 were 81% and 72%, respectively. The “inhibition of cysteine probe labeling, Protein-C” value is on record as 0 in the experiment with Protein-C (2 μM), 2 in the experiment with Protein-C (20 μM) and 0 in the experiment with Protein-C (50 μM). Besides, the “inhibition of cysteine probe labeling, Protein-A” value in the experiment with Protein-A (2 μM) came to 16; in the experiment with Protein-A (20 μM), 19; with Protein-A (50 μM) it was 13. Moreover, the “inhibition of cysteine probe labeling, Protein-B” value is on record as 23 in the experiment with Protein-B (2 μM), 11 with Protein-B (20 μM) and 17 with Protein-B (50 μM).
As for `C=CC(=O)N1CCC(Oc2cc(C(=O)N(C)C)cc(-c3ccccc3OC)c2)CC1` [Example A2], the inhibition at 500 µM against CRBN Cys188 was 9%; on CRBN Cys366 (500 micromolar), 2%; at CRBN Cys219 (500 micromolar, read-out: % inhibition of iodoacetamide probe labeling, Cys219) it was 31%; at CRBN Cys287 (setting [1]) it was 91%; on CRBN Cys205 (500 micromolar, read-out: % inhibition of iodoacetamide probe labeling, Cys205), 18%; against CRBN Cys343 (500 micromolar) it was -6%.
`CC(/C=C(\C#N)C(=O)N1CCC(c2ccccc2)C1)c1ccccc1` (stereo not shown) [Example A7]: the results for the inhibition at 0.5 µM at CRBN Cys366 (0.5 micromolar), on CRBN Cys234 (0.5 micromolar) and against CRBN Cys318 (0.5 micromolar) were 3%, 12% and 39%, respectively. Besides, the inhibition at 5 µM is 3% against CRBN Cys366 (5 micromolar); -3% against CRBN Cys219 (5 micromolar); 19% on CRBN Cys234 (5 micromolar); -42% against CRBN Cys205 (5 micromolar); 67% at CRBN Cys318 (5 micromolar); 8% against CRBN Cys343 (5 micromolar). Moreover, the inhibition at 50 µM is 26% against CRBN Cys366 (50 micromolar); 32% at CRBN Cys219 (50 micromolar); 32% against CRBN Cys234 (50 micromolar); 69% against CRBN Cys318 (50 micromolar); 51% at CRBN Cys343 (50 micromolar). Moreover, the inhibition at 2 µM at CRBN Cys287 (2.0 micromolar, read-out: % inhibition of iodoacetamide probe labeling, Cys287) was determined as 71%. The inhibition at 7.8 µM against CRBN Cys287 (7.8 micromolar) is 72%. In addition, the inhibition at 31.2 µM on CRBN Cys287 (31.2 micromolar, read-out: % inhibition of iodoacetamide probe labeling, Cys287) was 95%. In addition, the inhibition at 125 µM at CRBN Cys287 (125 micromolar, read-out: % inhibition of iodoacetamide probe labeling, Cys287) turned out to be 94%. Also, the inhibition at 500 µM at CRBN Cys287 (setting [1]) amounted to 92%.
